Measurements taken from the supplement of paper PMC11451515.

Columns and labels:
Conditions in all cases: 48 h
P12-Ichikawa [1] = experiment: AUC of viability dose-response curve (% viability x log10 dose units); higher = less sensitive
Procedure, shortened: (§1)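 Leukemia cells adapted to each medium were seeded at 500 or 1000 cells/well in 1536-well plates and dosed with library compounds in DMSO at 11 threefold doses from 47 μM to 0.79 nM for 48 h at 37°C. CellTiter-Glo One luminescence was normalised per plate to DMSO and cell-free wells, then fitted with a four-parameter log-logistic model over log10 doses. Area under the curve was taken from this fit by the trapezoidal rule, with curves above full viability scaled and curves failing quality control removed.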

SEM cells [2] = experiment: as above
Procedure, shortened: as §1

NOMO1 [3] = experiment: as above
Procedure, shortened: as §1

P12-Ichikawa [4] = experiment: cell viability relative to DMSO control; higher = less cytotoxic
Procedure, shortened: (§2)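 NOMO1, SEM and P12-Ichikawa leukemia cells spent at least four passages adapting to each medium before use. They were seeded at 500 cells/well (NOMO1, SEM) or 1000 cells/well (P12-Ichikawa) in 5 μl in 1536-well plates and pin-dosed with library compounds in DMSO at 11 threefold steps from 47 μM down to 0.79 nM. After 48 h at 37°C, CellTiter-Glo One luminescence was read. Viability is reported as a percentage of the DMSO wells on each plate, with cell-free wells as background.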

SEM cells [5] = experiment: as above
Procedure, shortened: as §2

NOMO1 [6] = experiment: as above
Procedure, shortened: as §2

CN1CC(=O)N2[C@H](c3ccc4c(c3)OCO4)c3[nH]c4ccccc4c3C[C@@H]2C1=O
AUC of viability dose-response curve
Conditions | NOMO1 [3] | P12-Ichikawa [1] | SEM cells [2]
HPLM + 10% dialyzed FBS | 427 | 456 | 466
RPMI 5 mM glucose + 10% FBS | 447 | 440 | 435
RPMI 5 mM glucose + 10% dialyzed FBS | 449 | 419 | 461

cell viability [%]
Conditions | NOMO1 [6] | P12-Ichikawa [4] | SEM cells [5]
HPLM + 10% dialyzed FBS, 0.000781 µM | 111 | 100 | 98.8
HPLM + 10% dialyzed FBS, 0.00234 µM | 99.6 | 99.2 | 88.6
HPLM + 10% dialyzed FBS, 0.00702 µM | 109 | 100 | 97.2
HPLM + 10% dialyzed FBS, 0.0211 µM | 107 | 97.9 | 96.3
HPLM + 10% dialyzed FBS, 0.0632 µM | 103 | 104 | 98
HPLM + 10% dialyzed FBS, 0.19 µM | 94.8 | 96.6 | 102
HPLM + 10% dialyzed FBS, 0.569 µM | 98.7 | 101 | 108
HPLM + 10% dialyzed FBS, 1.71 µM | 83.3 | 91.6 | 106
HPLM + 10% dialyzed FBS, 5.12 µM | 91.5 | 89.9 | 93.9
HPLM + 10% dialyzed FBS, 15.4 µM | 90.7 | 89.6 | 100
HPLM + 10% dialyzed FBS, 46.1 µM | 74.8 | 78.8 | 85.9
RPMI 5 mM glucose + 10% FBS, 0.000781 µM | 97.2 | 92.4 | 92.6
RPMI 5 mM glucose + 10% FBS, 0.00234 µM | 96.1 | 96.8 | 85.3
RPMI 5 mM glucose + 10% FBS, 0.00702 µM | 89.1 | 90.4 | 85.8
RPMI 5 mM glucose + 10% FBS, 0.0211 µM | 88.4 | 92.6 | 97.9
RPMI 5 mM glucose + 10% FBS, 0.0632 µM | 101 | 95 | 102
RPMI 5 mM glucose + 10% FBS, 0.19 µM | 101 | 103 | 108
RPMI 5 mM glucose + 10% FBS, 0.569 µM | 97 | 90 | 92.6
RPMI 5 mM glucose + 10% FBS, 1.71 µM | 83.9 | 94.1 | 88.8
RPMI 5 mM glucose + 10% FBS, 5.12 µM | 92.8 | 82.7 | 82.1
RPMI 5 mM glucose + 10% FBS, 15.4 µM | 97.8 | 96.9 | 85.3
RPMI 5 mM glucose + 10% FBS, 46.1 µM | 77 | 79.6 | 83.5
RPMI 5 mM glucose + 10% dialyzed FBS, 0.000781 µM | 107 | 89.8 | 94
RPMI 5 mM glucose + 10% dialyzed FBS, 0.00234 µM | 93.5 | 92 | 88.8
RPMI 5 mM glucose + 10% dialyzed FBS, 0.00702 µM | 97.6 | 92.6 | 88.3
RPMI 5 mM glucose + 10% dialyzed FBS, 0.0211 µM | 98.3 | 89.6 | 108
RPMI 5 mM glucose + 10% dialyzed FBS, 0.0632 µM | 88.4 | 90.9 | 106
RPMI 5 mM glucose + 10% dialyzed FBS, 0.19 µM | 103 | 92.1 | 69.6
RPMI 5 mM glucose + 10% dialyzed FBS, 0.569 µM | 98.9 | 85.1 | 105
RPMI 5 mM glucose + 10% dialyzed FBS, 1.71 µM | 89 | 87 | 113
RPMI 5 mM glucose + 10% dialyzed FBS, 5.12 µM | 81.3 | 83.6 | 105
RPMI 5 mM glucose + 10% dialyzed FBS, 15.4 µM | 109 | 81 | 89
RPMI 5 mM glucose + 10% dialyzed FBS, 46.1 µM | 79.1 | 78.5 | 95.4

COc1nc(C)cnc1N[S+](=O)([O-])c1cccnc1-c1ccc(-c2nnco2)cc1
AUC of viability dose-response curve
Conditions | HPLM + 10% dialyzed FBS | RPMI 5 mM glucose + 10% FBS | RPMI 5 mM glucose + 10% dialyzed FBS
NOMO1 [3] | 465 | 455 | 474
SEM cells [2] | 471 | 452 | 460

Nc1ccc([S+](=O)([O-])Nc2ccnn2-c2ccccc2)cc1
AUC of viability dose-response curve
Conditions | NOMO1 [3] | P12-Ichikawa [1] | SEM cells [2]
HPLM + 10% dialyzed FBS | 446 | 470 | 444
RPMI 5 mM glucose + 10% FBS | 467 | 455 | 452
RPMI 5 mM glucose + 10% dialyzed FBS | 451 | 464 | 440

cell viability [%]
Conditions | NOMO1 [6] | P12-Ichikawa [4] | SEM cells [5]
HPLM + 10% dialyzed FBS, 0.000781 µM | 85.1 | 105 | 76.6
HPLM + 10% dialyzed FBS, 0.00234 µM | 97.6 | 103 | 89.9
HPLM + 10% dialyzed FBS, 0.00702 µM | 104 | 103 | 80.9
HPLM + 10% dialyzed FBS, 0.0211 µM | 101 | 109 | 97.8
HPLM + 10% dialyzed FBS, 0.0632 µM | 108 | 111 | 87.8
HPLM + 10% dialyzed FBS, 0.19 µM | 98.6 | 102 | 98.8
HPLM + 10% dialyzed FBS, 0.569 µM | 100 | 105 | 109
HPLM + 10% dialyzed FBS, 1.71 µM | 98.3 | 106 | 95.5
HPLM + 10% dialyzed FBS, 5.12 µM | 107 | 105 | 94.8
HPLM + 10% dialyzed FBS, 15.4 µM | 102 | 110 | 93.8
HPLM + 10% dialyzed FBS, 46.1 µM | 113 | 107 | 93
RPMI 5 mM glucose + 10% FBS, 0.000781 µM | 84.7 | 95.9 | 89.4
RPMI 5 mM glucose + 10% FBS, 0.00234 µM | 98.5 | 101 | 92.8
RPMI 5 mM glucose + 10% FBS, 0.00702 µM | 97.8 | 98.3 | 105
RPMI 5 mM glucose + 10% FBS, 0.0211 µM | 105 | 96 | 102
RPMI 5 mM glucose + 10% FBS, 0.0632 µM | 98.9 | 108 | 88.8
RPMI 5 mM glucose + 10% FBS, 0.19 µM | 97 | 115 | 98.2
RPMI 5 mM glucose + 10% FBS, 0.569 µM | 99.4 | 108 | 114
RPMI 5 mM glucose + 10% FBS, 1.71 µM | 95.6 | 106 | 102
RPMI 5 mM glucose + 10% FBS, 5.12 µM | 102 | 100 | 89
RPMI 5 mM glucose + 10% FBS, 15.4 µM | 94.1 | 109 | 96.2
RPMI 5 mM glucose + 10% FBS, 46.1 µM | 96.8 | 107 | 116
RPMI 5 mM glucose + 10% dialyzed FBS, 0.000781 µM | 81.4 | 86.1 | 95.1
RPMI 5 mM glucose + 10% dialyzed FBS, 0.00234 µM | 90.1 | 98.7 | 89.5
RPMI 5 mM glucose + 10% dialyzed FBS, 0.00702 µM | 91.8 | 97.7 | 104
RPMI 5 mM glucose + 10% dialyzed FBS, 0.0211 µM | 95.1 | 92.9 | 86.2
RPMI 5 mM glucose + 10% dialyzed FBS, 0.0632 µM | 100 | 105 | 97.5
RPMI 5 mM glucose + 10% dialyzed FBS, 0.19 µM | 104 | 99 | 88
RPMI 5 mM glucose + 10% dialyzed FBS, 0.569 µM | 94.7 | 98.2 | 107
RPMI 5 mM glucose + 10% dialyzed FBS, 1.71 µM | 93.8 | 112 | 94.8
RPMI 5 mM glucose + 10% dialyzed FBS, 5.12 µM | 90.1 | 103 | 115
RPMI 5 mM glucose + 10% dialyzed FBS, 15.4 µM | 92.6 | 106 | 106
RPMI 5 mM glucose + 10% dialyzed FBS, 46.1 µM | 101 | 96.7 | 104

O=C(Nc1cc(C(F)(F)F)cc(C(F)(F)F)c1)c1cc(Cl)ccc1O
AUC of viability dose-response curve
Conditions | NOMO1 [3] | P12-Ichikawa [1] | SEM cells [2]
HPLM + 10% dialyzed FBS | 361 | 368 | 373
RPMI 5 mM glucose + 10% FBS | 368 | 361 | 357
RPMI 5 mM glucose + 10% dialyzed FBS | 363 | 361 | 370

CC(C)CN(C[C@@H](O)[C@H](Cc1ccccc1)NC(=O)O[C@H]1CCOC1)[S+](=O)([O-])c1ccc(N)cc1
AUC of viability dose-response curve
Conditions | NOMO1 [3] | P12-Ichikawa [1] | SEM cells [2]
HPLM + 10% dialyzed FBS | 440 | 396 | 410
RPMI 5 mM glucose + 10% FBS | 453 | 382 | 369
RPMI 5 mM glucose + 10% dialyzed FBS | 443 | 362 | 365
